Reference: the supplement of paper PMC12463676, “Small-molecule dissolution of stress granules by redox modulation benefits ALS models” (Nature Chemical Biology, 2025)

Assays:
lipoamide = compound: NC(=O)CCCCC1CCSS1 [lipoamide]; assay: thermal stability z-score vs DMSO; higher = more thermally stabilized by treatment; conditions: HeLa, lipoamide concentration 100 µM
Method: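 Cellular thermal proteome profiling in HeLa cells. Cells were treated with 100 µM lipoamide for 1 h, with or without 1 mM arsenate for a further 1 h, then heated to ten temperatures (37-66.3 °C), and soluble protein was quantified by TMT mass spectrometry relative to 0.1% DMSO controls. The thermal stability score (sum of log2 fold changes minus the abundance score) was transformed to a z-score; mean of n = 3 experiments.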

potassium arsenate = compound: O=[As]([O-])(O)O.[K+] [potassium arsenate]; assay: as above; conditions: HeLa; arsenate concentration 1 mM
Method: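 Cellular thermal proteome profiling in HeLa cells treated with 1 mM arsenate for 1 h (DMSO pretreatment), heated to ten temperatures (37-66.3 °C). Soluble protein was quantified by TMT mass spectrometry relative to DMSO controls; the thermal stability score was transformed to a z-score; mean of n = 3 experiments.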

[1] = arsenate co-treatment: 1 mM arsenate 1 h
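Note: each temperature applied for 3 min, abundance score taken as mean log2 fold change at the two lowest temperatures, z-score obtained by mean subtraction and division by SD.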

NCK1 (UniProt P16333)
thermal stability z-score (lipoamide; [1]): -0.705
thermal stability z-score (lipoamide; arsenate co-treatment: none): -0.905
thermal stability z-score (potassium arsenate): -0.0139

PYCR1 (UniProt P32322)
thermal stability z-score (lipoamide; [1]): -0.0172
thermal stability z-score (lipoamide; arsenate co-treatment: none): -0.299
thermal stability z-score (potassium arsenate): -0.368

CENPV (UniProt Q7Z7K6)
UniProt Q7Z7K6, sequence (Q7Z7K6 whole entry): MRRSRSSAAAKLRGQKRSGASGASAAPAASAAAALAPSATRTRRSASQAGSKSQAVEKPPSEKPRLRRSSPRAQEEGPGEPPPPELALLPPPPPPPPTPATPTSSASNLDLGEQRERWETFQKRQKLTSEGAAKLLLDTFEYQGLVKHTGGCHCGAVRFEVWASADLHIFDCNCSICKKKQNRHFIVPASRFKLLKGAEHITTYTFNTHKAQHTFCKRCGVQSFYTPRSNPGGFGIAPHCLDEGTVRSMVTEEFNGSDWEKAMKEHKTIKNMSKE
thermal stability z-score (lipoamide; [1]): 0.172
thermal stability z-score (lipoamide; arsenate co-treatment: none): 0.192
thermal stability z-score (potassium arsenate): -0.0535

ANLN (UniProt Q9NQW6)
thermal stability z-score (lipoamide; [1]): 0.066
thermal stability z-score (lipoamide; arsenate co-treatment: none): 0.0787
thermal stability z-score (potassium arsenate): -1.45

NOL7 (UniProt Q9UMY1)
UniProt Q9UMY1, sequence (Q9UMY1 whole entry): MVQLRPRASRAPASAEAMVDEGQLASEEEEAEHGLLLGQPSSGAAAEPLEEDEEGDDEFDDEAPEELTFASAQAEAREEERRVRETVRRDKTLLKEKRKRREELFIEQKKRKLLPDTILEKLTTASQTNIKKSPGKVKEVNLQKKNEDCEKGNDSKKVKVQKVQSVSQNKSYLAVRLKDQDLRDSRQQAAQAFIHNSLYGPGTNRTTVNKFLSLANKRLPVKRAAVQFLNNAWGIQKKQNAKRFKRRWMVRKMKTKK
thermal stability z-score (lipoamide; [1]): 0.225
thermal stability z-score (lipoamide; arsenate co-treatment: none): -0.325
thermal stability z-score (potassium arsenate): -0.698

CAPZA1 (UniProt P52907)
thermal stability z-score (lipoamide; [1]): -0.236
thermal stability z-score (lipoamide; arsenate co-treatment: none): 0.183
thermal stability z-score (potassium arsenate): 0.38

PSMA1 (UniProt P25786)
UniProt P25786, sequence (P25786 whole entry): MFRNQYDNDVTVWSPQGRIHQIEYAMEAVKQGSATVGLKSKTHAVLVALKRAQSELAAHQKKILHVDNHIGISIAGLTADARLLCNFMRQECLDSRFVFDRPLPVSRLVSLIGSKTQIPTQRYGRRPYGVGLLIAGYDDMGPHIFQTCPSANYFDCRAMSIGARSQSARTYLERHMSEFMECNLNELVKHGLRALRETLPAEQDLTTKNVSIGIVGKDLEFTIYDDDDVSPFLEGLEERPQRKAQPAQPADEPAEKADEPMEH
thermal stability z-score (lipoamide; [1]): 0.629
thermal stability z-score (lipoamide; arsenate co-treatment: none): 0.284
thermal stability z-score (potassium arsenate): 0.373

PRKRA (UniProt O75569)
thermal stability z-score (lipoamide; [1]): -0.115
thermal stability z-score (lipoamide; arsenate co-treatment: none): -0.0608
thermal stability z-score (potassium arsenate): -0.312

SACS (UniProt Q9NZJ4)
thermal stability z-score (lipoamide; [1]): -0.17
thermal stability z-score (lipoamide; arsenate co-treatment: none): -0.0653
thermal stability z-score (potassium arsenate): 0.0609

ARHGEF1 (UniProt Q92888)
UniProt Q92888, sequence (Q92888 whole entry): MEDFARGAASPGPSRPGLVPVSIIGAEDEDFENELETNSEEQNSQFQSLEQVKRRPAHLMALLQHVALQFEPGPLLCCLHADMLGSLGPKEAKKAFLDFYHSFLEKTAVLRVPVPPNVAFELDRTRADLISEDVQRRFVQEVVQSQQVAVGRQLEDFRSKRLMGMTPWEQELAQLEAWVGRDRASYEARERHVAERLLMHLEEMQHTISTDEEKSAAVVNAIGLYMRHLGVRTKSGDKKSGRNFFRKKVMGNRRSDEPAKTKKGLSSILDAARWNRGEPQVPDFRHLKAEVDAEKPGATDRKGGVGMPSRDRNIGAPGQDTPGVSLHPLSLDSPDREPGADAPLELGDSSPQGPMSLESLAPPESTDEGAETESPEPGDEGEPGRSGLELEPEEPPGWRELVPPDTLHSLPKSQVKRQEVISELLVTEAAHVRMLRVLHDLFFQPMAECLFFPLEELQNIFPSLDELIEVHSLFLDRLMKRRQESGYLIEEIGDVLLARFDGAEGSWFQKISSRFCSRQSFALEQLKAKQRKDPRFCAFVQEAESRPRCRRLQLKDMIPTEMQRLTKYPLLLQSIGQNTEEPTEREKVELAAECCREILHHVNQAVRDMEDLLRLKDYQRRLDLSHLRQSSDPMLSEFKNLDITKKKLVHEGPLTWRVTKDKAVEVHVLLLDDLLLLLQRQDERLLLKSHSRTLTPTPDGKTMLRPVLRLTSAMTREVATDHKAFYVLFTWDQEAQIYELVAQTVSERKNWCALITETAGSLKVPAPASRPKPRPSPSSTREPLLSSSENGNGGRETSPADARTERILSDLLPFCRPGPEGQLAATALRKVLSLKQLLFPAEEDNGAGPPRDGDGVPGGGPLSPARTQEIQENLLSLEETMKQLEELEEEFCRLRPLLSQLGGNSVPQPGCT
thermal stability z-score (lipoamide; [1]): -0.381
thermal stability z-score (lipoamide; arsenate co-treatment: none): -0.242
thermal stability z-score (potassium arsenate): 0.0617

IBTK (UniProt Q9P2D0)
thermal stability z-score (lipoamide; [1]): -0.734
thermal stability z-score (lipoamide; arsenate co-treatment: none): -0.319
thermal stability z-score (potassium arsenate): -0.576

PLXNB2 (UniProt O15031)
thermal stability z-score (lipoamide; [1]): 0.453
thermal stability z-score (lipoamide; arsenate co-treatment: none): 0.113
thermal stability z-score (potassium arsenate): -0.338

MLEC (UniProt Q14165)
thermal stability z-score (lipoamide; [1]): -3.66
thermal stability z-score (lipoamide; arsenate co-treatment: none): -2.94
thermal stability z-score (potassium arsenate): 0.385

LAMTOR1 (UniProt Q6IAA8)
thermal stability z-score (lipoamide; [1]): 1.14
thermal stability z-score (lipoamide; arsenate co-treatment: none): 0.655
thermal stability z-score (potassium arsenate): 0.827

SRR (UniProt Q9GZT4)
thermal stability z-score (lipoamide; [1]): -0.139
thermal stability z-score (lipoamide; arsenate co-treatment: none): -0.118
thermal stability z-score (potassium arsenate): -0.393

WDR4 (UniProt P57081)
thermal stability z-score (lipoamide; [1]): -0.105
thermal stability z-score (lipoamide; arsenate co-treatment: none): -0.0364
thermal stability z-score (potassium arsenate): 0.00243

KIF22 (UniProt Q14807)
thermal stability z-score (lipoamide; [1]): -0.451
thermal stability z-score (lipoamide; arsenate co-treatment: none): 0.147
thermal stability z-score (potassium arsenate): -0.386

IFI30 (UniProt P13284)
thermal stability z-score (lipoamide; [1]): 1.71
thermal stability z-score (lipoamide; arsenate co-treatment: none): 0.524
thermal stability z-score (potassium arsenate): -0.049

KIF21A (UniProt Q7Z4S6)
thermal stability z-score (lipoamide; [1]): -0.586
thermal stability z-score (lipoamide; arsenate co-treatment: none): -0.117
thermal stability z-score (potassium arsenate): 0.269

GEMIN6 (UniProt Q8WXD5)
UniProt Q8WXD5, sequence (Q8WXD5 whole entry): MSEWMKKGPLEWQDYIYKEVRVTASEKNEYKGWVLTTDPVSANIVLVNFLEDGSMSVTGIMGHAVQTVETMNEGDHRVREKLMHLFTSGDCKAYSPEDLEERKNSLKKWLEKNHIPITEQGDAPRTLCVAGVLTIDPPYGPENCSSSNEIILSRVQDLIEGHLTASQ
thermal stability z-score (lipoamide; [1]): 0.0364
thermal stability z-score (lipoamide; arsenate co-treatment: none): -0.18
thermal stability z-score (potassium arsenate): -0.129

TMEM41B (UniProt Q5BJD5)
thermal stability z-score (lipoamide; [1]): 0.259
thermal stability z-score (lipoamide; arsenate co-treatment: none): 0.188
thermal stability z-score (potassium arsenate): -0.153

CFDP1 (UniProt Q9UEE9)
thermal stability z-score (lipoamide; [1]): 0.254
thermal stability z-score (lipoamide; arsenate co-treatment: none): 0.185
thermal stability z-score (potassium arsenate): -0.21

CD151 (UniProt P48509)
thermal stability z-score (lipoamide; [1]): 1.24
thermal stability z-score (lipoamide; arsenate co-treatment: none): 0.682
thermal stability z-score (potassium arsenate): 0.131

ARPC3 (UniProt O15145)
thermal stability z-score (lipoamide; [1]): 0.0284
thermal stability z-score (lipoamide; arsenate co-treatment: none): 0.0195
thermal stability z-score (potassium arsenate): -0.254

CD59 (UniProt P13987)
UniProt P13987, sequence (P13987 whole entry): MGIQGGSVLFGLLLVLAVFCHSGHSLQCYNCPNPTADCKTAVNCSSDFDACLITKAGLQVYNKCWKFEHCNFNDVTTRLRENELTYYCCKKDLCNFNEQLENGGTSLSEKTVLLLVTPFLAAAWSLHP
thermal stability z-score (lipoamide; [1]): 0.714
thermal stability z-score (lipoamide; arsenate co-treatment: none): 0.698
thermal stability z-score (potassium arsenate): 3.07

MFF (UniProt Q9GZY8)
UniProt Q9GZY8, sequence (Q9GZY8 whole entry): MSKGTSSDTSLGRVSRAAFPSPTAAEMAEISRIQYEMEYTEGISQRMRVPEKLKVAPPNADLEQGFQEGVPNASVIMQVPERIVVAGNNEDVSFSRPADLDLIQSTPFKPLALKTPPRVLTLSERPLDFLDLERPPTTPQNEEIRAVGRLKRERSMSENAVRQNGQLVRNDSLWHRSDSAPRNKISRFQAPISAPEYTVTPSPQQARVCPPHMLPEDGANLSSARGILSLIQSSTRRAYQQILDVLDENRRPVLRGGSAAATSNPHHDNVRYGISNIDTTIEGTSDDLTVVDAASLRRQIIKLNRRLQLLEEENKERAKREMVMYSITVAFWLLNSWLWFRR
thermal stability z-score (lipoamide; [1]): -0.338
thermal stability z-score (lipoamide; arsenate co-treatment: none): -0.0711
thermal stability z-score (potassium arsenate): 0.0903

PSME4 (UniProt Q14997)
thermal stability z-score (lipoamide; [1]): -0.196
thermal stability z-score (lipoamide; arsenate co-treatment: none): -0.198
thermal stability z-score (potassium arsenate): -0.412

PTPN1 (UniProt P18031)
thermal stability z-score (lipoamide; [1]): -1.02
thermal stability z-score (lipoamide; arsenate co-treatment: none): -0.578
thermal stability z-score (potassium arsenate): 0.228

ECI2 (UniProt O75521)
thermal stability z-score (lipoamide; [1]): 0.0605
thermal stability z-score (lipoamide; arsenate co-treatment: none): -0.724
thermal stability z-score (potassium arsenate): -0.44

PARD3 (UniProt Q8TEW0)
thermal stability z-score (lipoamide; [1]): 0.02
thermal stability z-score (lipoamide; arsenate co-treatment: none): 0.0237
thermal stability z-score (potassium arsenate): -0.00597

ABLIM1 (UniProt O14639)
thermal stability z-score (lipoamide; [1]): 0.77
thermal stability z-score (lipoamide; arsenate co-treatment: none): 1.47
thermal stability z-score (potassium arsenate): -1.82

SIDT2 (UniProt Q8NBJ9)
thermal stability z-score (lipoamide; [1]): -1.33
thermal stability z-score (lipoamide; arsenate co-treatment: none): -1.46
thermal stability z-score (potassium arsenate): -1.91

DEGS1 (UniProt O15121)
thermal stability z-score (lipoamide; [1]): -0.756
thermal stability z-score (lipoamide; arsenate co-treatment: none): -1.25
thermal stability z-score (potassium arsenate): 0.212

DOCK1 (UniProt Q14185)
thermal stability z-score (lipoamide; [1]): -0.371
thermal stability z-score (lipoamide; arsenate co-treatment: none): -1.05
thermal stability z-score (potassium arsenate): 0.0692

MAF1 (UniProt Q9H063)
thermal stability z-score (lipoamide; [1]): -0.0772
thermal stability z-score (lipoamide; arsenate co-treatment: none): -0.00412
thermal stability z-score (potassium arsenate): -0.373

TM9SF3 (UniProt Q9HD45)
UniProt Q9HD45, sequence (Q9HD45 whole entry): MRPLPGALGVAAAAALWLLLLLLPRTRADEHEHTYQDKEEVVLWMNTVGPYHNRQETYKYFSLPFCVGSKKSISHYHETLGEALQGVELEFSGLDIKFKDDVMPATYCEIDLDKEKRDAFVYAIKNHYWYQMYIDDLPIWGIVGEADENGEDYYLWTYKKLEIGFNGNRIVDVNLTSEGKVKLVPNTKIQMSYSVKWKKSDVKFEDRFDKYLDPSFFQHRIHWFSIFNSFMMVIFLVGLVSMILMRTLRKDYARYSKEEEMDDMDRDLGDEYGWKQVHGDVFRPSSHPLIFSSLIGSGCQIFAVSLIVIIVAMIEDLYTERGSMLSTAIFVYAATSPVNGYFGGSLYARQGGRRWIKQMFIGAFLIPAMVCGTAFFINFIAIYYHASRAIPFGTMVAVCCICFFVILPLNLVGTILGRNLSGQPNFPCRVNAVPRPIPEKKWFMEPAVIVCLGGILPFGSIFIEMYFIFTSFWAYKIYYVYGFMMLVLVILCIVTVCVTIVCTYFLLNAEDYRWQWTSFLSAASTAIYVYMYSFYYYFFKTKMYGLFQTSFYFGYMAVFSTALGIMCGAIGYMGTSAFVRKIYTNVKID
thermal stability z-score (lipoamide; [1]): -0.451
thermal stability z-score (lipoamide; arsenate co-treatment: none): -0.0174
thermal stability z-score (potassium arsenate): 0.511

C1ORF174 (UniProt Q8IYL3)
UniProt Q8IYL3, sequence (Q8IYL3 whole entry): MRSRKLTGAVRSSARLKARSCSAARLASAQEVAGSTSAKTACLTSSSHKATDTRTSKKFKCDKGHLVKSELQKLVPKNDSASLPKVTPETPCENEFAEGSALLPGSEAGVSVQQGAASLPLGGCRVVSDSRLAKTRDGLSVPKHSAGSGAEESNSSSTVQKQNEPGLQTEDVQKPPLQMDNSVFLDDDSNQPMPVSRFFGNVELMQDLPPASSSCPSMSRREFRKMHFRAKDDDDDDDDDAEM
thermal stability z-score (lipoamide; [1]): -2.39
thermal stability z-score (lipoamide; arsenate co-treatment: none): -1.46
thermal stability z-score (potassium arsenate): -0.845

ZFP91 (UniProt Q96JP5)
thermal stability z-score (lipoamide; [1]): -0.301
thermal stability z-score (lipoamide; arsenate co-treatment: none): 0.00195
thermal stability z-score (potassium arsenate): -0.352

DDB2 (UniProt Q92466)
thermal stability z-score (lipoamide; [1]): -0.684
thermal stability z-score (lipoamide; arsenate co-treatment: none): -1.2
thermal stability z-score (potassium arsenate): 0.0883

HIP1 (UniProt O00291)
thermal stability z-score (lipoamide; [1]): 0.0784
thermal stability z-score (lipoamide; arsenate co-treatment: none): 0.0537
thermal stability z-score (potassium arsenate): 0.215

CPNE3 (UniProt O75131)
UniProt O75131, sequence (O75131 whole entry): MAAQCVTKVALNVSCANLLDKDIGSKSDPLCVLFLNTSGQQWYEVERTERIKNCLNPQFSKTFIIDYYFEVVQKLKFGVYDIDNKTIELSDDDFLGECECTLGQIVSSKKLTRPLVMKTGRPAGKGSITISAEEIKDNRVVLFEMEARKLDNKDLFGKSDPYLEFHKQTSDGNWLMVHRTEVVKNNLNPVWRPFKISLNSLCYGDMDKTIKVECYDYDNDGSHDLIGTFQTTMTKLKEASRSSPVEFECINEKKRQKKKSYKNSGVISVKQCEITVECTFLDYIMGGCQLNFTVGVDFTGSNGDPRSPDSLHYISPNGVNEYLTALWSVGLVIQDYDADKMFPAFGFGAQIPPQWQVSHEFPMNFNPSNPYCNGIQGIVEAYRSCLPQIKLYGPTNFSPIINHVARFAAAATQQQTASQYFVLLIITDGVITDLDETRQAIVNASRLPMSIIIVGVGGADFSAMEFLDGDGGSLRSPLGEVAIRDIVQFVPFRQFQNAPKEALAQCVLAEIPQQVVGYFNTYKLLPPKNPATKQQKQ
thermal stability z-score (lipoamide; [1]): 1.73
thermal stability z-score (lipoamide; arsenate co-treatment: none): 2.22
thermal stability z-score (potassium arsenate): 0.283

KIF5B (UniProt P33176)
UniProt P33176, sequence (P33176 whole entry): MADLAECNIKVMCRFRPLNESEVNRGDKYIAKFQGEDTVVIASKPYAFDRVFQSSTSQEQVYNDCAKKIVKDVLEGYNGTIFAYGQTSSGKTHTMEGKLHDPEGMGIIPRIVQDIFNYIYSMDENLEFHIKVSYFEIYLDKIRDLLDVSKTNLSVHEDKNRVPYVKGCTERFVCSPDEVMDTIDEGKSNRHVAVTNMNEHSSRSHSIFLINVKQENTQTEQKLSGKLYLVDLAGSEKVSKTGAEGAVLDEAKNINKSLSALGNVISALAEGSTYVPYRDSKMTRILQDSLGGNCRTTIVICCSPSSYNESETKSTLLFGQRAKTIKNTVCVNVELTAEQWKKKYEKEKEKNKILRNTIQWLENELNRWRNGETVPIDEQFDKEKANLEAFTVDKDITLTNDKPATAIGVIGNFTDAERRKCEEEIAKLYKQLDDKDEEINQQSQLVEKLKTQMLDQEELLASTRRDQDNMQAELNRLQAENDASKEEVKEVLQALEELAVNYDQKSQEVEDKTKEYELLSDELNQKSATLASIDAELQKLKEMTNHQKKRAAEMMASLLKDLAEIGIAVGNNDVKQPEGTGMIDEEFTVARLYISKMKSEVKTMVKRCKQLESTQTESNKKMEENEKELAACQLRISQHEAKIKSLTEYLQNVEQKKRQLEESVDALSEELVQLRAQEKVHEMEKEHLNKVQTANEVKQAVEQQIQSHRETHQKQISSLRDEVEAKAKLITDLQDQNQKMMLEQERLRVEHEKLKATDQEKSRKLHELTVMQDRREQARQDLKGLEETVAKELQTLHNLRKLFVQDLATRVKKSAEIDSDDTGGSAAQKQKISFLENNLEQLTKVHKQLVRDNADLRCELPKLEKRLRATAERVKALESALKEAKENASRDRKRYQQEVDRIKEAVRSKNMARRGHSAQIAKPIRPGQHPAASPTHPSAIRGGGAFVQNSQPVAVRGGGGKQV
thermal stability z-score (lipoamide; [1]): 0.397
thermal stability z-score (lipoamide; arsenate co-treatment: none): 0.256
thermal stability z-score (potassium arsenate): 1.17

CEP192 (UniProt Q8TEP8)
thermal stability z-score (lipoamide; [1]): -0.251
thermal stability z-score (lipoamide; arsenate co-treatment: none): -0.467
thermal stability z-score (potassium arsenate): 0.0297

KHSRP (UniProt Q92945)
thermal stability z-score (lipoamide; [1]): 0.21
thermal stability z-score (lipoamide; arsenate co-treatment: none): 0.161
thermal stability z-score (potassium arsenate): 0.486

CRK (UniProt P46108)
thermal stability z-score (lipoamide; [1]): 0.951
thermal stability z-score (lipoamide; arsenate co-treatment: none): 0.233
thermal stability z-score (potassium arsenate): 1.2

GLO1 (UniProt Q04760)
UniProt Q04760, sequence (Q04760 whole entry, looked up): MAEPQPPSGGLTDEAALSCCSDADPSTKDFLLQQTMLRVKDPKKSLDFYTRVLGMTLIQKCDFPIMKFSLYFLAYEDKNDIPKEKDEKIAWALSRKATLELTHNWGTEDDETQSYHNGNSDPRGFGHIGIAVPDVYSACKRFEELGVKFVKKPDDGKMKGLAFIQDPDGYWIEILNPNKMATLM
thermal stability z-score (lipoamide; [1]): 1.12
thermal stability z-score (lipoamide; arsenate co-treatment: none): 0.739
thermal stability z-score (potassium arsenate): 1.62

NUP153 (UniProt P49790)
thermal stability z-score (lipoamide; [1]): 0.99
thermal stability z-score (lipoamide; arsenate co-treatment: none): 0.627
thermal stability z-score (potassium arsenate): 3.83

EIF4ENIF1 (UniProt Q9NRA8)
thermal stability z-score (lipoamide; [1]): -0.03
thermal stability z-score (lipoamide; arsenate co-treatment: none): 0.00167
thermal stability z-score (potassium arsenate): -0.0325

MRPL53 (UniProt Q96EL3)
thermal stability z-score (lipoamide; [1]): 0.75
thermal stability z-score (lipoamide; arsenate co-treatment: none): -0.432
thermal stability z-score (potassium arsenate): 0.0397

ZSWIM8 (UniProt A7E2V4)
thermal stability z-score (lipoamide; [1]): 0.028
thermal stability z-score (lipoamide; arsenate co-treatment: none): 0.0796
thermal stability z-score (potassium arsenate): -0.0789

GLRX3 (UniProt O76003)
thermal stability z-score (lipoamide; [1]): 0.153
thermal stability z-score (lipoamide; arsenate co-treatment: none): 0.465
thermal stability z-score (potassium arsenate): 0.88

ATP1B1 (UniProt P05026)
thermal stability z-score (lipoamide; [1]): 0.104
thermal stability z-score (lipoamide; arsenate co-treatment: none): -0.207
thermal stability z-score (potassium arsenate): -0.201

SYNJ2BP (UniProt P57105)
thermal stability z-score (lipoamide; [1]): 0.988
thermal stability z-score (lipoamide; arsenate co-treatment: none): 0.247
thermal stability z-score (potassium arsenate): 0.518

SSRP1 (UniProt Q08945)
thermal stability z-score (lipoamide; [1]): 1.24
thermal stability z-score (lipoamide; arsenate co-treatment: none): 2.15
thermal stability z-score (potassium arsenate): 1.4

CASK (UniProt O14936)
thermal stability z-score (lipoamide; [1]): 0.388
thermal stability z-score (lipoamide; arsenate co-treatment: none): 0.281
thermal stability z-score (potassium arsenate): -0.0604
